{
  "source": "paper PMC3224213",
  "about": "“Bacterial membrane activity of α-peptide/β-peptoid chimeras: Influence of amino acid composition and chain length on the activity against different bacterial strains” (BMC Microbiology, 2011)",
  "key": {"[1]": {"set-up": "method as in PMID 18675778", "settings": "unilamellar liposomes mimicking human cell membranes; ref [24]; cited from earlier work"}, "S. aureus": {"system": "S. aureus", "assay": "ATP leakage bioluminescence assay", "assay_type": "cell-based, Staphylococcus aureus", "settings": "1000 μg/mL chimera", "procedure": "(§1) Pore formation as caused by peptide addition was determined by measuring ATP leakage from the bacterial cell using a bioluminescence assay. The assay was used to estimate differences between sub-typical chimeras 1, 2 and 3 on S. aureus and S. marcescens and to evaluate the effect of chain length of mixed type chimeras 4a, 4b and 4c on S. aureus. In brief, bacteria were grown in TSB at 37°C for 24 hours and then re-inoculated in TSB at 37°C for 6-8 hours until an absorbance at 546 nm of 2.5 for S. aureus and 2.0 for S. marcescens and then harvested (10 min at 2,000 × g). The bacteria were grown to a high absorbance since a high concentration of bacteria was necessary in order to get a measurable response in the ATP leakage assay. Cells were washed once in 50 mM potassium phosphate buffer (pH 7.0) and once in 50 mM HEPES buffer (pH 7.0), before the pellet was resuspended in HEPES buffer to an OD546 ~ 10, and then stored on ice. Before chimera addition bacteria were pre-incubated with 0.2% (w/v) glucose to energize the cells. In general a chimera dose of 1000 μg/mL (corresponding to 280-552 μM for all chimeras) was used for all assays; however, for determining dose response curves additional doses of 100 (28-55 μM), 250 (71-137 μM) and 500 (140-276 μM) μg/mL were tested, and only the immediate release was noted. Total ATP and extracellular ATP were determined with a luminometer […]. Intracellular volumes of S. aureus and S. marcescens (0.85 μm^3 and 1.7 μm^3, respectively) were subtracted from the total volume before calculating the extracellular ATP concentration; the intracellular ATP concentration could then be calculated from this and the total ATP. ATP leakage kinetics was determined on a bacterial suspension prepared as above. Samples were taken at time 0, 5, 10, 20, 30 and 60 minutes and viable counts determined. Both the ATP leakage assay and killing kinetics performed under the same assay conditions were performed in two independent experiments."}, "S. marcescens": {"system": "S. marcescens", "assay": "ATP leakage bioluminescence assay", "assay_type": "cell-based, Serratia marcescens", "settings": "1000 μg/mL chimera", "procedure": "as §1"}, "[2]": {"system": "twelve food-borne and clinical bacterial strains", "assay_type": "cell-based", "settings": "ratio of MIC values, Table 2", "procedure": "Initial activity experiments were carried out with twelve strains from seven bacterial species representing common laboratory strains and clinical strains derived from both food-borne and nosocomial infections (Table 1). Stock cultures were stored at -80°C in 4% (w/v) glycerol, 0.5% (w/v) glucose, 2% (w/v) skimmed milk powder and 3% (w/v) tryptone soy powder. All experiments were carried out with bacteria incubated for one night (i.e. approximately 18 hours) at 37°C. Experiments were performed in cation-adjusted Mueller Hinton II broth (MHB) (Becton Dickinson 212322) adjusted to pH 7.4 or Tryptone Soy Broth (TSB) (Oxoid CM0129) for the ATP leakage assays. Brain Heart Infusion (BHI) (CM1135) with agar (VWR 20768.292) 1.5% as gelling agent was used throughout for colony plating.\nThe Minimum Inhibitory Concentration (MIC) of the chimeras was determined against the spectrum of bacteria using the microdilution method according to guidelines of the Clinical and Laboratory Standards Institute (CLSI). Chimera 1:2 serial dilutions were prepared from 1,024 μg/mL stock solutions to give a final range of 512-0.5 μg/mL in the wells. This corresponds to a final range of 144 to 0.14 μM for the heaviest chimera (i.e. chimera 4c) and of 282 to 0.27 μM for the lightest chimera (i.e. chimera 4a). Colonies grown overnight (i.e. approximately 18 hours) on BHI agar were suspended in 0.9% saline to give a turbidity of 0.13 at OD546 (approximately 1 × 10^8 CFU/mL), and then diluted in MHB pH 7.4 to a final concentration of 5 × 10^5 CFU/mL in each well. Following CLSI guidelines the media for testing of Listeria monocytogenes strains were supplemented with 2.5% lysed horse blood. Polypropylene plates (Nunc 442587) were used to minimize peptide binding and incubation time was 18-20 hours at 37°C. MIC was determined in a minimum of two technical replicates as the lowest concentration of the peptide analogue where no visible growth was found. The Minimum Bactericidal Concentration (MBC) was determined by plating 10 μL of the suspension from the first three wells without growth on BHI agar and incubating these for 24 hours at 37°C. MBC was the lowest concentration at which a 99.9% reduction in CFU/mL was observed. Activity is expressed in μmol/L to enable a direct comparison of analogues with different length (= size)."}},
  "data": [
    {"smiles": "CC(=O)N[C@@H](CCCCN)C(=O)N(CCC(=O)N[C@@H](CCCCN)C(=O)N(CCC(=O)N[C@@H](CCCCN)C(=O)N(CCC(=O)N[C@@H](CCCCN)C(=O)N(CCC(=O)N[C@@H](CCCCN)C(=O)N(CCC(=O)N[C@@H](CCCCN)C(=O)N(CCC(=O)N[C@@H](CCCCN)C(=O)N(CCC(=O)N[C@@H](CCCCN)C(=O)N(CCC(N)=O)[C@@H](C)c1ccccc1)[C@@H](C)c1ccccc1)[C@@H](C)c1ccccc1)[C@@H](C)c1ccccc1)[C@@H](C)c1ccccc1)[C@@H](C)c1ccccc1)[C@@H](C)c1ccccc1)[C@@H](C)c1ccccc1", "note": "[Chimera 3]", "values": [
      {"measurement": "ability to induce calcein leakage", "setting": "[1]", "result": "positive response"},
      {"measurement": "ATP leakage (in words)", "setting": "S. aureus", "result": "caused leakage of ATP"},
      {"measurement": "ATP leakage (in words)", "setting": "S. marcescens", "result": "caused leakage of ATP"},
      {"measurement": "lower activity compared to chimera 2 against E.coli", "setting": "[2]", "result": "2-7 fold"},
      {"measurement": "lower activity compared to chimera 2 against S. aureus and K. pneumoniae", "setting": "[2]", "result": "6-13 fold"}
    ]}
  ]
}
